This test relates to MV-4-11 cells. Briefly: Gene expression microarray analysis (Affymetrix PrimeView) and GSEA. The format is cell-based, human. Also on record: RFU PODN (11730768_x_at) / Fold change /veh PODN (11730768_x_at) / RFU LINC00158 (11744669_a_at) / Fold change /veh LINC00158 (11744669_a_at) / RFU DUSP10 (11751237_a_at) / Fold change /veh DUSP10 (11751237_a_at) / RFU ID3 (11757404_x_at) / Fold change /veh ID3 (11757404_x_at) / RFU PLEKHG5 (11737974_s_at) / Fold change /veh PLEKHG5 (11737974_s_at) / RFU LRRC4B (11730491_at) / Fold change /veh LRRC4B (11730491_at) / RFU GIMAP4 (11747438_a_at) / Fold change /veh GIMAP4 (11747438_a_at) / RFU KRT8 (11758183_x_at) / Fold change /veh KRT8 (11758183_x_at) / RFU CNN1 (11734310_a_at) / Fold change /veh CNN1 (11734310_a_at) / RFU VPS37D (11726825_at) / Fold change /veh VPS37D (11726825_at) / RFU C10orf10 (11716522_x_at) / Fold change /veh C10orf10 (11716522_x_at) / RFU KIR2DL2 /// KIR2DL4 /// KIR2DL5A /// KIR2DL5B /// KIR2DS1 /// KIR2DS2 /// KIR2DS3 /// KIR2DS4 /// KIR3DL3 /// KIR3DL3 /// KIR3DS1 (11738374_at) / Fold change /veh KIR2DL2 /// KIR2DL4 /// KIR2DL5A /// KIR2DL5B /// KIR2DS1 /// KIR2DS2 /// KIR2DS3 /// KIR2DS4 /// KIR3DL3 /// KIR3DL3 /// KIR3DS1 (11738374_at) / RFU C1QL1 (11718748_at) / Fold change /veh C1QL1 (11718748_at) / RFU TMPRSS4 (11747572_a_at) / Fold change /veh TMPRSS4 (11747572_a_at) / RFU HAMP (11756126_x_at) / Fold change /veh HAMP (11756126_x_at) / RFU RNFT2 (11725882_a_at) / Fold change /veh RNFT2 (11725882_a_at) / RFU NR4A2 (11747474_a_at) / Fold change /veh NR4A2 (11747474_a_at) / RFU ABCC12 (11746883_a_at) / Fold change /veh ABCC12 (11746883_a_at) / RFU TMEM136 (11760407_x_at) / Fold change /veh TMEM136 (11760407_x_at) / RFU CLDN22 /// WWC2 (11732394_at) / Fold change /veh CLDN22 /// WWC2 (11732394_at) / RFU HLA-DPB1 (11760878_x_at) / Fold change /veh HLA-DPB1 (11760878_x_at) / RFU SPINT1 (11716480_a_at) / Fold change /veh SPINT1 (11716480_a_at) / RFU GAP43 (11754022_s_at) / Fold change /veh GAP43 (11754022_s_at) / RFU A4GNT (11735810_at) / Fold change /veh A4GNT (11735810_at) / RFU PRB3 (11715151_x_at) / Fold change /veh PRB3 (11715151_x_at) / RFU TUBB4B (11761932_at) / Fold change /veh TUBB4B (11761932_at) / RFU CAPN14 (11732068_a_at) / Fold change /veh CAPN14 (11732068_a_at) / RFU TMCC2 (11721928_a_at) / Fold change /veh TMCC2 (11721928_a_at) / RFU IRGQ (11745062_a_at) / Fold change /veh IRGQ (11745062_a_at) / RFU FAM174B (11720279_a_at) / Fold change /veh FAM174B (11720279_a_at) / RFU TMPRSS4 (11748680_a_at) / Fold change /veh TMPRSS4 (11748680_a_at) / RFU FAM212B (11763350_a_at) / Fold change /veh FAM212B (11763350_a_at) / RFU PLEKHG5 (11743358_a_at) / Fold change /veh PLEKHG5 (11743358_a_at) / RFU ZSCAN30 (11745921_a_at) / Fold change /veh ZSCAN30 (11745921_a_at) / RFU CMKLR1 (11741424_a_at) / Fold change /veh CMKLR1 (11741424_a_at) / RFU LOC101060620 /// MAPK8IP1 (11723275_at) / Fold change /veh LOC101060620 /// MAPK8IP1 (11723275_at) / RFU SPTSSB (11747773_x_at) / Fold change /veh SPTSSB (11747773_x_at) / RFU PRSS12 (11739890_at) / Fold change /veh PRSS12 (11739890_at) / RFU BIN1 (11741810_x_at) / Fold change /veh BIN1 (11741810_x_at) / RFU WNT11 (11732464_a_at) / Fold change /veh WNT11 (11732464_a_at) / RFU C10orf10 (11716521_a_at) / Fold change /veh C10orf10 (11716521_a_at) / RFU C5orf56 (11738089_at) / Fold change /veh C5orf56 (11738089_at) / RFU CYB561 (11721691_x_at) / Fold change /veh CYB561 (11721691_x_at) / RFU ANKRD19P (11752326_a_at) / Fold change /veh ANKRD19P (11752326_a_at) / RFU OR2T12 /// OR2T33 /// OR2T8 (11738714_s_at) / Fold change /veh OR2T12 /// OR2T33 /// OR2T8 (11738714_s_at) / RFU VCAN (11748164_a_at) / Fold change /veh VCAN (11748164_a_at) / RFU JSRP1 (11732532_at) / Fold change /veh JSRP1 (11732532_at) / RFU KRTAP10-11 (11738290_x_at) / Fold change /veh KRTAP10-11 (11738290_x_at) / RFU MYO3A (11730013_a_at) / Fold change /veh MYO3A (11730013_a_at) / RFU EBF3 (11725865_a_at) / Fold change /veh EBF3 (11725865_a_at) / RFU CAMK2N1 (11719241_x_at) / Fold change /veh CAMK2N1 (11719241_x_at) / RFU C5orf56 (11738088_a_at) / Fold change /veh C5orf56 (11738088_a_at) / RFU OLFML3 (11715873_a_at) / Fold change /veh OLFML3 (11715873_a_at) / RFU LOC100653217 /// NTM (11731650_a_at) / Fold change /veh LOC100653217 /// NTM (11731650_a_at) / RFU MAPK11 (11762145_a_at) / Fold change /veh MAPK11 (11762145_a_at) / RFU FIZ1 (11724087_x_at) / Fold change /veh FIZ1 (11724087_x_at) / RFU OASL (11726364_x_at) / Fold change /veh OASL (11726364_x_at) / RFU SOX15 (11748057_x_at) / Fold change /veh SOX15 (11748057_x_at) / RFU CD79A (11719716_a_at) / Fold change /veh CD79A (11719716_a_at) / RFU HIST1H1D (11736915_at) / Fold change /veh HIST1H1D (11736915_at) / RFU CASKIN2 (11723855_a_at) / Fold change /veh CASKIN2 (11723855_a_at) / RFU LOC730098 (11760151_x_at) / Fold change /veh LOC730098 (11760151_x_at) / RFU OR4N2 (11742367_at) / Fold change /veh OR4N2 (11742367_at) / RFU PRRT2 (11749266_a_at) / Fold change /veh PRRT2 (11749266_a_at) / RFU SNX32 (11753110_a_at) / Fold change /veh SNX32 (11753110_a_at) / RFU CDHR5 (11726645_a_at) / Fold change /veh CDHR5 (11726645_a_at) / RFU RCAN1 (11760418_a_at) / Fold change /veh RCAN1 (11760418_a_at) / RFU FAM167A (11723789_a_at) / Fold change /veh FAM167A (11723789_a_at) / RFU FAM26E (11764081_at) / Fold change /veh FAM26E (11764081_at) / RFU ISYNA1 (11749810_s_at) / Fold change /veh ISYNA1 (11749810_s_at) / RFU ACY1 (11761880_at) / Fold change /veh ACY1 (11761880_at) / RFU 11764098_at / Fold change /veh 11764098_at / RFU SAMD14 (11745864_x_at) / Fold change /veh SAMD14 (11745864_x_at) / RFU NPB (11741838_a_at) / Fold change /veh NPB (11741838_a_at) / RFU TMPRSS6 (11731388_a_at) / Fold change /veh TMPRSS6 (11731388_a_at) / RFU KRTAP10-2 (11738614_at) / Fold change /veh KRTAP10-2 (11738614_at) / RFU ARHGAP8 /// PRR5-ARHGAP8 (11727945_x_at) / Fold change /veh ARHGAP8 /// PRR5-ARHGAP8 (11727945_x_at) / RFU KRTAP5-7 /// NADSYN1 (11734609_at) / Fold change /veh KRTAP5-7 /// NADSYN1 (11734609_at) / RFU RASL12 (11751679_a_at) / Fold change /veh RASL12 (11751679_a_at) / RFU CDKN2B (11736163_a_at) / Fold change /veh CDKN2B (11736163_a_at) / RFU PRF1 (11729649_at) / Fold change /veh PRF1 (11729649_at) / RFU, ZNF638 /// ZNF638-IT1 / Fold change vs veh, ZNF638 /// ZNF638-IT1 / RFU, PANK3 / Fold change vs veh, PANK3 / RFU, SH3YL1 / Fold change vs veh, SH3YL1 / RFU, ZEB2 / Fold change vs veh, ZEB2 / RFU, NRIP1 / Fold change vs veh, NRIP1 / RFU, PTTG1IP / Fold change vs veh, PTTG1IP / RFU, CAPN2 / Fold change vs veh, CAPN2 / RFU, MED14 / Fold change vs veh, MED14 / RFU, SNORA58 / Fold change vs veh, SNORA58 / RFU, C1orf63 / Fold change vs veh, C1orf63 / RFU, LRRFIP1 / Fold change vs veh, LRRFIP1 / RFU, NDUFAF7 / Fold change vs veh, NDUFAF7 / RFU, SLC12A2 / Fold change vs veh, SLC12A2 / RFU, IBTK / Fold change vs veh, IBTK / RFU, ESF1 / Fold change vs veh, ESF1 / Fold change vs veh, TMEM50B / RFU, TAOK1 / Fold change vs veh, TAOK1 / RFU, ACBD3 / Fold change vs veh, ACBD3 / RFU, TMA16 / Fold change vs veh, TMA16 / RFU, RWDD3 / Fold change vs veh, RWDD3 / RFU, BCAT1 / Fold change vs veh, BCAT1 / RFU, EDEM3 / Fold change vs veh, EDEM3 / RFU, TMEM33 / Fold change vs veh, TMEM33 / RFU, WDR75 / Fold change vs veh, WDR75 / RFU, AHCTF1 / Fold change vs veh, AHCTF1 / RFU, TFRC / Fold change vs veh, TFRC / RFU, ZDHHC17 / Fold change vs veh, ZDHHC17 / RFU, NOM1 / Fold change vs veh, NOM1 / RFU, ARL8B / Fold change vs veh, ARL8B / RFU, ZBTB11 / Fold change vs veh, ZBTB11 / RFU, TAMM41 / Fold change vs veh, TAMM41 / RFU, KIAA1704 /// LOC100996395 / Fold change vs veh, KIAA1704 /// LOC100996395 / RFU, ING1 / Fold change vs veh, ING1 / RFU, TRMT61B / Fold change vs veh, TRMT61B / RFU, FUBP3 / Fold change vs veh, FUBP3 / RFU, TP53 / Fold change vs veh, TP53 / RFU, TNKS2 / Fold change vs veh, TNKS2 / RFU, ZFP14 / Fold change vs veh, ZFP14 / RFU, ACTR2 / Fold change vs veh, ACTR2 / RFU, PPP3R1 / Fold change vs veh, PPP3R1 / RFU, PIK3R1 / Fold change vs veh, PIK3R1 / RFU, HNRNPA1 / Fold change vs veh, HNRNPA1 / RFU, RNF170 / Fold change vs veh, RNF170 / RFU, ZNF28 / Fold change vs veh, ZNF28 / RFU, RNGTT / Fold change vs veh, RNGTT / RFU, OGT / Fold change vs veh, OGT / RFU, BRD1 / Fold change vs veh, BRD1 / RFU, MARS / Fold change vs veh, MARS / RFU, ZNF655 / Fold change vs veh, ZNF655 / RFU, FAHD1 / Fold change vs veh, FAHD1 / RFU, BDP1 / Fold change vs veh, BDP1 / RFU, LRRCC1 / Fold change vs veh, LRRCC1 / RFU, ARID1A / Fold change vs veh, ARID1A / RFU, ZNF146 / Fold change vs veh, ZNF146 / RFU, ZNF330 / Fold change vs veh, ZNF330 / RFU, GPN3 / Fold change vs veh, GPN3 / RFU, C9orf123 / Fold change vs veh, C9orf123 / RFU, N4BP2L2 / Fold change vs veh, N4BP2L2 / RFU, ARFIP1 / Fold change vs veh, ARFIP1 / RFU, FAM179B / Fold change vs veh, FAM179B / RFU, BCL10 / Fold change vs veh, BCL10 / RFU, UHRF1BP1L / Fold change vs veh, UHRF1BP1L / RFU, BET1 / Fold change vs veh, BET1 / RFU, CNOT2 / Fold change vs veh, CNOT2 / RFU, ZNF268 / Fold change vs veh, ZNF268 / Fold change vs veh, ZNF507 / RFU, DGCR2 / Fold change vs veh, DGCR2 / RFU, WDSUB1 / Fold change vs veh, WDSUB1 / Fold change vs veh, HSP90B1 /// MIR3652 / RFU, ADSS / Fold change vs veh, ADSS / RFU, GK / Fold change vs veh, GK / RFU, ZNF148 / Fold change vs veh, ZNF148 / RFU, TAF9 / Fold change vs veh, TAF9 / RFU, SLC1A5 / Fold change vs veh, SLC1A5 / RFU, SLMO2 / Fold change vs veh, SLMO2 / RFU, ABCC4 / Fold change vs veh, ABCC4 / RFU, LOC101060439 /// RAP1B / Fold change vs veh, LOC101060439 /// RAP1B / RFU, RFX7 / Fold change vs veh, RFX7 / RFU, GTPBP10 / Fold change vs veh, GTPBP10 / RFU, CNEP1R1 / Fold change vs veh, CNEP1R1 / RFU, BIVM-ERCC5 /// ERCC5 / Fold change vs veh, BIVM-ERCC5 /// ERCC5 / RFU, ILF3 / Fold change vs veh, ILF3 / RFU 11762660_at / Fold change /veh 11762660_at / RFU VCAN (11757783_s_at) / Fold change /veh VCAN (11757783_s_at) / RFU DDX43 (11728927_at) / Fold change /veh DDX43 (11728927_at) / RFU KRT8 (11758188_x_at) / Fold change /veh KRT8 (11758188_x_at) / RFU NKD1 (11759106_at) / Fold change /veh NKD1 (11759106_at) / RFU SRD5A1 (11742802_a_at) / Fold change /veh SRD5A1 (11742802_a_at) / RFU TPSAB1 /// TPSB2 (11721975_s_at) / Fold change /veh TPSAB1 /// TPSB2 (11721975_s_at) / RFU GSTM3 (11746129_a_at) / Fold change /veh GSTM3 (11746129_a_at) / RFU IL23R (11737362_x_at) / Fold change /veh IL23R (11737362_x_at) / RFU TMEM51 (11727254_a_at) / Fold change /veh TMEM51 (11727254_a_at) / RFU PIWIL2 (11732686_x_at) / Fold change /veh PIWIL2 (11732686_x_at) / RFU ORM1 (11744905_x_at) / Fold change /veh ORM1 (11744905_x_at) / RFU CCDC152 (11743942_at) / Fold change /veh CCDC152 (11743942_at) / RFU ECM1 (11717891_a_at) / Fold change /veh ECM1 (11717891_a_at) / RFU IL23R (11748794_a_at) / Fold change /veh IL23R (11748794_a_at) / RFU TNFAIP8L3 (11732012_x_at) / Fold change /veh TNFAIP8L3 (11732012_x_at) / RFU MBOAT4 (11741988_at) / Fold change /veh MBOAT4 (11741988_at) / RFU 11764193_at / Fold change /veh 11764193_at / RFU TMEM53 (11763286_at) / Fold change /veh TMEM53 (11763286_at) / RFU MAGEB2 (11727129_at) / Fold change /veh MAGEB2 (11727129_at) / RFU TMEM200A (11744735_a_at) / Fold change /veh TMEM200A (11744735_a_at) / RFU CCDC152 (11751479_a_at) / Fold change /veh CCDC152 (11751479_a_at) / RFU FAM211A (11726209_a_at) / Fold change /veh FAM211A (11726209_a_at) / RFU RGS16 (11746705_a_at) / Fold change /veh RGS16 (11746705_a_at) / RFU VCAN (11755009_s_at) / Fold change /veh VCAN (11755009_s_at) / RFU RHOB (11743442_s_at) / Fold change /veh RHOB (11743442_s_at) / RFU RGS16 (11720943_a_at) / Fold change /veh RGS16 (11720943_a_at) / RFU RGS16 (11720944_at) / Fold change /veh RGS16 (11720944_at) / RFU, VPS4B / Fold change vs veh, VPS4B / RFU, CREB1 / Fold change vs veh, CREB1 / RFU, DNAJC13 / Fold change vs veh, DNAJC13 / RFU, GNAQ / Fold change vs veh, GNAQ / RFU, CDK5R1 / Fold change vs veh, CDK5R1 / RFU, ZRANB3 / Fold change vs veh, ZRANB3 / RFU, CUL4A / Fold change vs veh, CUL4A / RFU, CCNY / Fold change vs veh, CCNY / RFU, UFL1 / Fold change vs veh, UFL1 / RFU, COG3 / Fold change vs veh, COG3 / RFU, DIAPH2 / Fold change vs veh, DIAPH2 / RFU, SKA2 / Fold change vs veh, SKA2 / RFU, AFF3 / Fold change vs veh, AFF3 / RFU, LMF1 / Fold change vs veh, LMF1 / RFU, IPO11 / Fold change vs veh, IPO11 / RFU, DFFB / Fold change vs veh, DFFB / RFU, FOXP1 / Fold change vs veh, FOXP1 / RFU, CARD8 / Fold change vs veh, CARD8 / RFU, STRN3 / Fold change vs veh, STRN3 / RFU, ADK / Fold change vs veh, ADK / RFU, RASSF2 / Fold change vs veh, RASSF2 / RFU, WIPF1 / Fold change vs veh, WIPF1 / RFU, LARP1B / Fold change vs veh, LARP1B / RFU, RASA1 / Fold change vs veh, RASA1 / RFU, RB1 / Fold change vs veh, RB1 / RFU, PPFIA1 / Fold change vs veh, PPFIA1 / RFU, MAT2A / Fold change vs veh, MAT2A / RFU, CCT5 / Fold change vs veh, CCT5 / RFU, WDR92 / Fold change vs veh, WDR92 / RFU, CUX1 / Fold change vs veh, CUX1 / RFU, TTC7A / Fold change vs veh, TTC7A / RFU, TMEM135 / Fold change vs veh, TMEM135 / RFU, DEPTOR / Fold change vs veh, DEPTOR / RFU, CPM / Fold change vs veh, CPM / RFU, DNAJB6 / Fold change vs veh, DNAJB6 / RFU, CACNA2D3 / Fold change vs veh, CACNA2D3 / RFU, DTX4 / Fold change vs veh, DTX4 / RFU, TFCP2 / Fold change vs veh, TFCP2 / RFU, GMCL1 /// GMCL1P1 / Fold change vs veh, GMCL1 /// GMCL1P1 / RFU, AEBP2 / Fold change vs veh, AEBP2 / RFU, SNHG1 /// SNORD22 /// SNORD25 /// SNORD26 /// SNORD27 /// SNORD28 /// SNORD29 /// SNORD31 / Fold change vs veh, SNHG1 /// SNORD22 /// SNORD25 /// SNORD26 /// SNORD27 /// SNORD28 /// SNORD29 /// SNORD31 / Fold change (Aza/veh), C12orf56 (ProbeSet 11735607_a_at) / Fold change (ACY-1035/veh), C12orf56 (ProbeSet 11735607_a_at) / Fold change (Aza/veh), FGFR1OP (ProbeSet 11751329_s_at) / Fold change (ACY-1035/veh), FGFR1OP (ProbeSet 11751329_s_at) / Fold change (Aza/veh), VPS36 (ProbeSet 11739960_a_at) / Fold change (ACY-1035/veh), VPS36 (ProbeSet 11739960_a_at) / RFU SYPL1 (11715823_x_at) / Fold change /veh SYPL1 (11715823_x_at) / RFU IGFBP7 (11715501_s_at) / Fold change /veh IGFBP7 (11715501_s_at) / RFU REEP3 (11722064_at) / Fold change /veh REEP3 (11722064_at) / RFU IGLL1 (11728026_x_at) / Fold change /veh IGLL1 (11728026_x_at): dose or concentration left out as unconfirmed. As to conditions: ProbeSet 11722302_a_at; LIST B.

`Nc1ccc(-c2cccs2)cc1NC(=O)c1ccc2c(c1)cc(C1CC1)n2CCN1CCOCC1` [ACY-1035]: the “RFU, LRRFIP1” value is 143.54 RFU.

The values above are taken from publication PMC5218480 (PLoS ONE, 2017).
